ChEMBL document CHEMBL5247575 (J Med Chem, 2018)

Assays:
Acinetobacter baumannii = experiment: Synergistic antibacterial activity against Acinetobacter baumannii NCTC 13301 producing OXA-23/51 infected in sc dosed Swiss albino mouse assessed as tigecycline MIC at 8 ug/ml administered 1 hr post infection and measured upto 7 days; format: functional; conditions: NCTC 13301, 168 h, dose 8 µg/ml, time <= 7 day
Klebsiella pneumoniae = experiment: Antibacterial activity against Klebsiella pneumoniae 901/1860 producing KPC-3 by broth microdilution method; format: functional

SMILES: N#C[C@@H]1CC[C@@H]2CN1C(=O)N2OS(=O)(=O)[O-].[Na+]
- MIC (Acinetobacter baumannii): 1 µg/mL

SMILES: O=C(NNC(=O)[C@@H]1CC[C@@H]2CN1C(=O)N2OS(=O)(=O)O)[C@@H]1CCCNC1 [ZIDEBACTAM]
- MIC (Klebsiella pneumoniae): > 16 µg/mL
